Test results from the NIST ThermoML archive (doi:10.1007/s10765-011-1087-7).

Assay: xn = mol fraction of the nth substance listed
Settings: 101 kPa, Liquid; for speed of sound: Pulse-echo method

CCCCCCC(C)O (centres undefined) [2-octanol] + Clc1ccccc1Cl
Settings | mass density, 298.15 K [kg/m3] | mass density, 303.15 K [kg/m3] | speed of sound, 298.15 K [m/s] | speed of sound, 303.15 K [m/s] | viscosity, 298.15 K [mPa·s] | viscosity, 303.15 K [mPa·s]
x2 = 0.0721 | 841.72 | 837.79 | 1302 | 1283.9 | 5.353 | 4.223
x2 = 0.1124 | 856.33 | 852.34 | 1299.7 | 1281.6 | 4.742 | 3.749
x2 = 0.1868 | 884.26 | 880.15 | 1295.1 | 1277.6 | 3.839 | 3.115
x2 = 0.2615 | 913.56 | 909.35 | 1291 | 1273.5 | 3.163 | 2.648
x2 = 0.3223 | 938.42 | 934.11 | 1287.8 | 1270.5 | 2.721 | 2.342
x2 = 0.3758 | 961.09 | 956.68 | 1285.1 | 1267.9 | 2.414 | 2.15
x2 = 0.4495 | 993.6 | 989.05 | 1281.8 | 1264.9 | 2.086 | 1.942
x2 = 0.512 | 1022.45 | 1017.76 | 1279.1 | 1262.2 | 1.873 | 1.772
x2 = 0.5923 | 1061.35 | 1056.48 | 1276.1 | 1259.6 | 1.668 | 1.613
x2 = 0.6557 | 1093.66 | 1088.63 | 1274.5 | 1258 | 1.551 | 1.473
x2 = 0.7312 | 1134.18 | 1128.95 | 1273.2 | 1257 | 1.406 | 1.34
x2 = 0.797 | 1171.44 | 1166.05 | 1273 | 1256.7 | 1.293 | 1.253
x2 = 0.8672 | 1213.47 | 1207.93 | 1274.4 | 1257.9 | 1.283 | 1.201
x2 = 0.9481 | 1265.11 | 1259.5 | 1277.6 | 1261.6 | 1.308 | 1.223
